Measurements from patent publication US9738642B2, “Triazolopyridine ether derivatives and their use in neurological and pyschiatric disorders” (BRISTOL-MYERS SQUIBB COMPANY, priority 2013, dated 2017).
Where a name gives a salt, the structure may show the parent alone.

Target: T1, human mGluR2 (Homo sapiens, UniProt Q14416)
T1 construct: expressed in transfected cells; host or cells: HEK293 clonal line
Assay: mGluR2 cAMP assay
Assay type: cell-based
Conditions: clonally expressed human mGluR2 in HEK293; 1 μM forskolin, 1 μM LY-341495, 30 min; CISBIO cAMP kit; read-out: EC50 (nM), activity in mGluR2 cAMP assay
Experimental: On the day of the assay, media was removed, cells washed with PBS, cells harvested and pelleted by centrifugation. Cell pellets were resuspended in stimulation buffer without forskolin and counted. […] A standard curve was created using a top concentration of cAMP of 1 μM in the stimulation buffer, 1:3 dilutions over 14 points in the absence of cells. […] In house software converted the fluorescence value ratios to units of cAMP concentration, which is then used to calculate % inhibition for each test compound. MGluR2 cAMP Assay Materials and Methods. […] Buffer without forskolin was used as a negative control. Solutions of D2 and cryptate detection reagents from the CISBIO dynamic cAMP kit (62AM4PEJ) were diluted 1:40 in lysis buffer. Lysis buffer consisted of 50 mM Phosphate Buffer pH 7.0, 800 mM Potassium Fluoride, 0.2% BSA, and 1.0% Triton. Assay reaction was terminated by addition of detection reagents in lysis buffer. One hour later, plates were read on a PE Viewlux. Data was extracted, and concentration response curves generated by fitting the data to a standard 4 parameter logistic equation from which EC50 values were determined.

T1 sequence (Q14416 19-872): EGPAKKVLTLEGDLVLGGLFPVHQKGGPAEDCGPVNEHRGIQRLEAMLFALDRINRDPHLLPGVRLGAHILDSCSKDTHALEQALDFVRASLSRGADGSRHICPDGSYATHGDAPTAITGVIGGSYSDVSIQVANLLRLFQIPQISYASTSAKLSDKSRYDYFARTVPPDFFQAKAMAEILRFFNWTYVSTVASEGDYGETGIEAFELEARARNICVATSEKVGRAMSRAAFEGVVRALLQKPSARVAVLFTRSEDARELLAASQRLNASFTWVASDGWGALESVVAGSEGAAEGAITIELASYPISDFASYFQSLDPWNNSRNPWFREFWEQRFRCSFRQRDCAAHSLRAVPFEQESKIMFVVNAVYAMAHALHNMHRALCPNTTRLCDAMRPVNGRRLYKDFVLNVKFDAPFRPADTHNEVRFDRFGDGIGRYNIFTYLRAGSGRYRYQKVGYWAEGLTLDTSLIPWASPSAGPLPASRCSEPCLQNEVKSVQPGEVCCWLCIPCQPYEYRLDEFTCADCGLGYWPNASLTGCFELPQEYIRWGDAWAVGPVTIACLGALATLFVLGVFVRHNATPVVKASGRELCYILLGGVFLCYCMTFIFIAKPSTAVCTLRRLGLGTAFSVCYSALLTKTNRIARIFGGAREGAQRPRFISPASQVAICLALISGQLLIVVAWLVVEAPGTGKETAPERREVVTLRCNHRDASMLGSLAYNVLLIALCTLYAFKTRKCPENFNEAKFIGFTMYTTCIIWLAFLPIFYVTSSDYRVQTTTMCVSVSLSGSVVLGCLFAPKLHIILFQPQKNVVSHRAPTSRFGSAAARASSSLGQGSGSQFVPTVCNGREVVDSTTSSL

| Structure (SMILES) | EC50 |
| --- | --- |
| COc1c(F)ccc(F)c1[C@H]1C[C@@H]1COc1ccn2c(CC3CC3)nnc2c1C(F)(F)F (racemic) [Example 47, (±)-3-(Cyclopropylmethyl)-7-(((1S,2S)-2-(3,6-difluoro-2-methoxyphenyl)cyclopropyl)methoxy)-8-(trifluoromethyl)-[1,2,4]triazolo[4,3-a]pyridine] | 0.8 nM |
| CC(C)(COc1ccn2c(COCC(F)(F)F)nnc2c1C(F)(F)F)Oc1ccc(Cl)cc1 [Example 22, 7-(2-(4-Chlorophenoxy)-2-methylpropoxy)-3-((2,2,2-trifluoroethoxy)methyl)-8-(trifluoromethyl)-[1,2,4]triazolo[4,3-a]pyridine, TFA salt] | 4.9 nM |
| FC(F)(F)Oc1ccccc1[C@@H]1C[C@H]1COc1ccn2c(CC3CC3)nnc2c1C(F)(F)F (single isomer, unassigned) [Example 42] | 1.9 nM |
| N#C[C@]1(c2cc(F)cc(F)c2)C[C@H](Oc2ccn3c(CC4CC4)nnc3c2C(F)(F)F)C1 [Example 54, (1s,3s)-3-(3-(Cyclopropylmethyl)-8-(trifluoromethyl)-[1,2,4]triazolo[4,3-a]pyridin-7-yloxy)-1-(3,5-difluorophenyl)cyclobutanecarbonitrile] | 2.2 nM |
| CC(C)(COc1ccn2c(CC(F)(F)F)nnc2c1C(F)(F)F)c1ccc(Cl)cc1 [Example 7, 7-(2-(4-Chlorophenyl)-2-methylpropoxy)-3-(2,2,2-trifluoroethyl)-8-(trifluoromethyl)-[1,2,4]triazolo[4,3-a]pyridine] | 13 nM |
| C[C@@](C#N)(COc1ccn2c(CC3CC3)nnc2c1C(F)(F)F)c1ccc(F)cc1 (single isomer, unassigned) [Example 14] | 230 nM |
| CC(COc1ccn2c(CC3CC3)nnc2c1C(F)(F)F)c1ccc(F)cc1 (racemic) [Example 4, 3-(Cyclopropylmethyl)-7-(2-(4-fluorophenyl)propoxy)-8-(trifluoromethyl)-[1,2,4]triazolo[4,3-a]pyridine, TFA salt] | 10 nM |
| Fc1cccc(Cl)c1[C@H]1C[C@@H]1COc1ccn2c(CC3CC3)nnc2c1C(F)(F)F (racemic) [Example 48, (±)-7-(((1S,2S)-2-(2-chloro-6-fluorophenyl)cyclopropyl)methoxy)-3-(cyclopropylmethyl)-8-(trifluoromethyl)-[1,2,4]triazolo[4,3-a]pyridine] | 0.5 nM |
| Clc1ccccc1COc1ccn2c(CC3CC3)nnc2c1Cl [Example 66, 8-Chloro-7-(2-chlorobenzyloxy)-3-(cyclopropylmethyl)-[1,2,4]triazolo[4,3-a]pyridine] | 11 nM |
| Clc1c(OCc2cccc(OC3CC3)c2)ccn2c(CC3CC3)nnc12 [Example 75, 8-Chloro-7-(3-cyclopropoxybenzyloxy)-3-(cyclopropylmethyl)-[1,2,4]triazolo[4,3-a]pyridine] | 29 nM |
| Fc1ccc(C2(COc3ccn4c(CC5CC5)nnc4c3C(F)(F)F)CC2)c(F)c1 [Example 51, 3-(Cyclopropylmethyl)-7-((1-(2,4-difluorophenyl)cyclopropyl)methoxy)-8-(trifluoromethyl)-[1,2,4]triazolo[4,3-a]pyridine] | 43 nM |
| COc1cccc(F)c1COc1ccn2c(CC3CC3)nnc2c1Cl [Example 72, 8-Chloro-3-(cyclopropylmethyl)-7-(2-fluoro-6-methoxybenzyloxy)-[1,2,4]triazolo[4,3-a]pyridine] | 42 nM |
| FC(F)(F)COCc1nnc2c(C(F)(F)F)c(O[C@H]3CC[C@H](c4ccccc4)CC3)ccn12 [Example 27, 7-((1r,4r)-4-Phenylcyclohexyloxy)-3-((2,2,2-trifluoroethoxy)methyl)-8-(trifluoromethyl)-[1,2,4]triazolo[4,3-a]pyridine] | 0.6 nM |
| COc1cc(F)ccc1[C@H]1C[C@@H]1COc1ccn2c(CC3CC3)nnc2c1C(F)(F)F (racemic) [Example 49, (±)-3-(Cyclopropylmethyl)-7-(((1S,2S)-2-(4-fluoro-2-methoxyphenyl)cyclopropyl)methoxy)-8-(trifluoromethyl)-[1,2,4]triazolo[4,3-a]pyridine] | 0.4 nM |
| Fc1ccccc1[C@H]1C[C@@H]1COc1ccn2c(CC3CC3)nnc2c1C(F)(F)F (racemic) [Example 43, (±)-3-(Cyclopropylmethyl)-7-(((1S,2S)-2-(2-fluorophenyl)cyclopropyl)methoxy)-8-(trifluoromethyl)-[1,2,4]triazolo[4,3-a]pyridine] | 1.4 nM |
| FC(F)(F)c1c(OCC2(c3ccccc3)CCCCC2)ccn2c(CC3CC3)nnc12 [Example 1, 3-(Cyclopropylmethyl)-7-((1-phenylcyclohexyl)methoxy)-8-(trifluoromethyl)-[1,2,4]triazolo[4,3-a]pyridine] | 1.8 nM |
| FC(F)(F)c1c(OC[C@H]2C[C@@H]2c2ccc(Cl)cc2)ccn2c(CC3CC3)nnc12 (racemic) [Example 31, (±)-7-(((1S,2S)-2-(4-chlorophenyl)cyclopropyl)methoxy)-3-(cyclopropylmethyl)-8-(trifluoromethyl)-[1,2,4]triazolo[4,3-a]pyridine] | 1.3 nM |
| CO[C@@](C)(COc1ccn2c(CC3CC3)nnc2c1C(F)(F)F)c1ccc(F)cc1 (single isomer, unassigned) [Example 24] | 36 nM |

Further molecules by falling EC50, results first:

| EC50 | Structure (SMILES) |
| --- | --- |
| 80 nM | C[C@](C#N)(COc1ccn2c(CC3CC3)nnc2c1C(F)(F)F)c1ccc(F)cc1 (single isomer, unassigned) [Example 15] |
| 11 nM | Fc1cccc(F)c1COc1ccn2c(CC3CC3)nnc2c1Cl [Example 71, 8-Chloro-3-(cyclopropylmethyl)-7-(2,6-difluorobenzyloxy)-[1,2,4]triazolo[4,3-a]pyridine] |
| 6.1 nM | FC(F)(F)c1c(OCC(F)(F)c2ccccc2)ccn2c(CC3CC3)nnc12 [Example 83, 3-(Cyclopropylmethyl)-7-(2,2-difluoro-2-phenylethoxy)-8-(trifluoromethyl)-[1,2,4]triazolo[4,3-a]pyridine] |
| 1.4 nM | FC(F)(F)Oc1ccccc1[C@H]1C[C@@H]1COc1ccn2c(CC3CC3)nnc2c1C(F)(F)F (racemic) [Example 38, (±)-3-(Cyclopropylmethyl)-7-(((1S,2S)-2-(2-(trifluoromethoxy)phenyl)cyclopropyl)methoxy)-8-(trifluoromethyl)-[1,2,4]triazolo[4,3-a]pyridine] |
| 1.3 nM | COc1ccc([C@H]2C[C@@H]2COc2ccn3c(CC4CC4)nnc3c2C(F)(F)F)cc1 (racemic) [Example 45, (±)-3-(Cyclopropylmethyl)-7-(((1S,2S)-2-(4-methoxyphenyl)cyclopropyl)methoxy)-8-(trifluoromethyl)-[1,2,4]triazolo[4,3-a]pyridine] |
| 0.8 nM | C[C@@H](COc1ccn2c(CC3CC3)nnc2c1C(F)(F)F)c1c(F)cccc1Cl (single isomer, unassigned) [Example 9] |
| 0.3 nM | COc1ccccc1[C@]1(C#N)C[C@@H](Oc2ccn3c(CC4CC4)nnc3c2C(F)(F)F)C1 [Example 53, (1s,3s)-3-(3-(Cyclopropylmethyl)-8-(trifluoromethyl)-[1,2,4]triazolo[4,3-a]pyridin-7-yloxy)-1-(2-methoxyphenyl)cyclobutanecarbonitrile] |
| 0.3 nM | CO[C@]1(c2ccc(F)cc2)CC[C@H](Oc2ccn3c(CC4CC4)nnc3c2C(F)(F)F)CC1 [Example 19, 3-(Cyclopropylmethyl)-7-((1s,4s)-4-(4-fluorophenyl)-4-methoxycyclohexyloxy)-8-(trifluoromethyl)-[1,2,4]triazolo[4,3-a]pyridine] |
